Reference: PubChem BioAssay AID624420 (Sanford-Burnham Center for Chemical Genomics, 2012)

System: Human plasma stability, percent remaining
Assay: compound stability in Homo sapiens plasma, ADME assay, biochemical, second set (AID 624420)
Conditions: at 1 µM

Compound | plasma stability [%]
CN(C)C1=C(Cl)C(=O)N(c2ccc(Cl)c(Cl)c2)C1=O | 0.83
O=C1C2CC=CCC2C(=O)N1c1n[nH]c(-c2ccccc2)n1 (stereo not given) | 69.8
Cn1nnnc1Sc1ncnc2scc(-c3ccccc3)c12 | 76.8
Cc1ccc(S(=O)(=O)n2c(N)nc3ccccc32)cc1 | 95.8
Cc1nc(SCc2nc3ccccc3[nH]2)c2oc3ccccc3c2n1 | 88
Cc1ccc(NS(=O)(=O)c2ccc3c(c2)CCC(=O)N3)cc1C | 100
O=C(O)CCC(NS(=O)(=O)c1ccc(-c2ccccc2)cc1)C(=O)O (stereo not given) | 57
O=c1c2ccccc2[se]n1-c1ccccc1 | 100
COc1ccc(CNCc2cccc3ccccc23)cc1 | 92.1
O=C(CSc1cccc2cccnc12)N1CCCC1 | 99.3
COc1ccc(S(=O)(=O)N2CCN(S(=O)(=O)c3ccc4c(c3)OCCO4)CC2)cc1 | 96.4
CCCN(CCC)CCNC(=O)C1CCN(Cc2nc(-c3ccc(Cl)cc3)oc2C)CC1 | 100
COc1ccc(S(=O)(=O)n2nc(OC(=O)c3ccccc3)cc2N)cc1 | 0.3
O=C(O)c1ccc(N2C(=O)/C(=C/c3ccc(-c4ccc([N+](=O)[O-])cc4)o3)C=C2c2ccccc2)cc1 | 87.3
Cc1ccc(-n2c(N)c(C#N)c(-c3ccccc3)c(C#N)c2=O)cc1 | 99.8
O=C(O)c1cccnc1SCCc1ccccc1 | 88.3
CCc1oc2ccccc2c1C(=O)c1cc(Br)c(O)c(Br)c1 | 94.6
CN(C)c1nc(N)nc(CSc2nnnn2-c2cccc3ccccc23)n1 | 100
CC(C)C(=O)NC(c1ccco1)c1ccc2cccnc2c1O (stereo not given) | 100
COc1ccc(CSc2nc(C)cc(=O)[nH]2)cc1 | 100
CC(=O)c1ccc(N2CCN(S(=O)(=O)c3ccc4c(c3)CC(=O)N4)CC2)cc1 | 80.6
NC(=O)C1CCN(c2nc(-c3ccc(Br)cc3)cs2)CC1 | 96.8

Compound | plasma stability [%]
Brc1ccc2c(c1)CN1CCCC1=N2 | 100
Cc1ccc(C)c(NS(=O)(=O)c2cc(C(=O)Nc3ccccc3-c3ccccc3)ccc2Cl)c1 | 100
O=C1CCCC2=C1C1(CCCC1)N=C(Nc1nc3ccccc3o1)N2 | 100
CCCN1CNc2c(c(=O)[nH]c(=S)n2CCc2ccc(OC)c(OC)c2)C1 | 85.1
CS(=O)(=O)c1ccc(C(=O)OCC(=O)NC23CC4CC(CC(C4)C2)C3)cc1[N+](=O)[O-] | 0.07
CCCn1ncc(CN2CCCC(C(=O)c3cccc(OC(C)C)c3)C2)c1C (stereo not given) | 100
Cc1cc2c(s1)c1cnn(Cc3ccccc3F)c(=O)c1n2C | 82.8
C/C=C/Cn1c(SCCCc2ccccc2)nc2c1c(=O)[nH]c(=O)n2C | 98.5
COc1ccc(C2CC(c3ccccc3)=NN2c2ccc(S(N)(=O)=O)cc2)cc1 (stereo not given) | 79.5
N#C/C(=C\c1ccc([N+](=O)[O-])o1)c1nc2ccccc2[nH]1 | 16.9
CCCc1cc(C(=O)N(C2CCCCC2)C2CCCCC2)no1 | 67.4
COc1ccc(N(C(=O)CCl)C(C(=O)NCCc2ccccc2)c2cccs2)cc1Cl (stereo not given) | 68.2
O=c1[nH]c2c(s1)C(c1cccnc1)C1C3CCC(C3)C1S2 (stereo not given) | 86.8
O=C(O)c1ccccc1OCc1ccccc1Br | 76.7
COc1cccc(-c2nc(-c3ccc(NC(=O)Cc4ccccc4OC)cc3)no2)c1 | 100
CCN1CCN(c2nc3ccccc3nc2C(C#N)C(=O)OC2CCCCC2)CC1 (stereo not given) | 100
COc1ccccc1N(/N=C1\Sc2ccccc2C1=O)C(C)=O | 94.1
CCOC(=O)C(C)Oc1cccc2c(=O)n(CC(=O)Nc3ccc4c(c3)OCCO4)ccc12 (stereo not given) | 37.7
CCOc1ccc(-c2nc(-c3ccncc3)no2)cc1OCC | 100
C=CCn1c(SCC(=O)c2ccc(O)c(O)c2)nnc1-c1ccccc1OC | 100
Cc1cc(C(=O)CN2C(=O)CCC2=O)c(C)n1Cc1ccccc1 | 84
O=C(c1ccccn1)N(Cc1cccs1)C1(C(=O)NC2CCCCC2)CCCCC1 | 96.7

Compound | plasma stability [%]
Cn1cnc([N+](=O)[O-])c1Sc1ncnc2nc[nH]c12 | 83.2
Brc1cc2c(cc1C1Nc3ccccc3C3C=CCC31)OCO2 (stereo not given) | 97
Cc1ccc(NC(=O)CCC(=O)N/N=C/c2ccc([N+](=O)[O-])o2)cc1C | 67
CCCc1nc2c(=O)n(C)c(=O)nc-2n(C)n1 | 1.52
CCCC(=O)Nc1cccc(NC(=O)c2ccccc2Br)c1 | 87.8
CN(C)c1oc(-c2ccc(OCc3ccc(Cl)cc3)cc2)nc1C#N | 94.3
O=C(COC(=O)C12CC3CC(CC(C3)C1)C2)NCc1ccco1 | 58.7
Cc1ccc(S(=O)(=O)NCc2ccc(C(=O)NCCN(Cc3ccccc3)C(C)C)cc2)cc1 | 100
CCCOc1ccc(-c2nc(OC)c3ccccc3n2)cc1 | 100
CSc1nc(-c2ccc(C)cc2)nc(C(Cl)Cl)n1 | 81.9
Cc1cc(C)n(-c2nc(NCCCO)c3c4c(sc3n2)CCCC4)n1 | 88.5
Cc1ccnc(NC(=O)CCCOc2cc(=O)n(C)c3ccccc23)c1 | 100
CC[C@H]1CN2CCc3cc(OC)c(OC)cc3[C@@H]2C[C@@H]1C[C@H]1NCCc2cc(OC)c(OC)cc21 | 91.5
Cc1ccc(N2CCN(S(=O)(=O)N3CCCCC3)CC2)c(C)c1 | 100
O=C1NCCCc2c1oc1ccc(O)cc21 | 95.7
COc1ccc(OC)c(-c2nnc3n2N=C(c2ccc(OC)c(OC)c2)CS3)c1 | 100
Cc1ccc(C)c(OCCn2cc(C(=O)O)c3ccccc32)c1 | 91.6
c1ccc2c(Nc3nnc(-c4ccncc4)s3)cccc2c1 | 99.5
O=[N+]([O-])c1ccc(CN2CCOCCOCCN(Cc3ccc([N+](=O)[O-])cc3)CCOCC2)cc1 | 98.3
O=S1(=O)Nc2c(ccc3cccnc23)-c2ccccc21 | 100
Cc1ccccc1N1CCN(c2ncnc3c2cnn3Cc2ccc(Cl)cc2)CC1 | 88.2
COc1ccc(C2c3c(ncn(CCN4CCOCC4)c3=N)Oc3ccc4ccccc4c32)cc1OC (stereo not given) | 93.5

Compound | plasma stability [%]
COC(=O)c1ccccc1NC(=O)c1ccc(F)cc1 | 80
COc1ccc(Sc2ccc(NC(=O)c3ccccc3Cl)cc2C#N)cc1 | 91.9
CCOc1ccc(NC(=S)N2CCC(C(O)(c3ccccc3)c3ccccc3)CC2)cc1 | 63.7
c1ccc(CC2CCN(c3ncnc4sccc34)CC2)cc1 | 100
O=c1[nH]c(SCc2ccc(Cl)cc2)nc2c1CCC2 | 100
CC1CCCN(C(C(=O)Nc2ccc3c(c2)OCCO3)c2ccccc2)C1 (stereo not given) | 100
COc1nc(-c2ccccc2)nnc1-c1ccccc1 | 100
Cc1ccc(C(=O)n2c3ccccc3c3ccccc32)cc1 | 92
Cc1cc(C)nc(-n2nc(C)c(Sc3ccc(F)cc3)c2N)n1 | 97
COc1ccc(OC)c(S(=O)(=O)Nc2cnc3ccccc3c2)c1 | 83
Cc1cccc(-n2cnc3cc(C(=O)N4CCCCC4)ccc32)c1 | 87
O=C(CCNS(=O)(=O)c1cccc2nsnc12)N1CCN(c2ccccn2)CC1 | 91.2
c1ccc(-c2nnc(N3CCOCC3)nc2-c2ccccc2)cc1 | 100
N#Cc1ccccc1CSc1nc2ncc(Br)cc2[nH]1 | 95.4
Cc1cc(-c2nnc3n2CCCCC3)c(C)n1-c1ccccc1 | 87.9
O=S(=O)(NC1CCCCC1N1CCOCC1)c1ccc(Cl)cc1 (stereo not given) | 100
O=C(COc1ccccc1Br)NCCc1nc2ccccc2[nH]1 | 88
Cc1ccc(S(=O)(=O)C(c2ccccc2)c2c(C)noc2C)cc1 (stereo not given) | 91.9
CCc1nnc(NC(=O)c2ccc(NS(=O)(=O)c3ccccc3)cc2)s1 | 100
